Source: patent publication US12545637B2, “Extrahepatic targeted cationic lipid compound with high efficiency and low toxicity and its composition” (BEIJING YOUCARE KECHUANG PHARMACEUTICAL TECHNOLOGY CO., LTD., priority 2023, dated 2026)

Key:
[1] = Particle size and polydispersity index (PDI) of lipid nanoparticles by dynamic light scattering; format: physicochemical
Method: The particle size and polydispersity index (PDI) were determined by dynamic light scattering using Malvern laser particle size analyzer.
10 μL of the liposome solution was weighed, diluted to 1 mL with RNase-free deionized water, and added to the sample pool. Each sample was measured in triplicate. The measurement conditions were: […] scattering angle, and 25° C.

293T cells [2] = test: Cell survival rate assay (CCK-8); format: cell-based
Outline: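 293T cells seeded at 10,000 cells/well, cultured overnight, then exposed 24 h to LNP carrying 1.5 μg Fluc-mRNA (cationic:neutral:structured:PEG-type lipid 49:10:39.5:1.5) or Lipofectamine 3000. Viability read by CCK-8, 1 h incubation, absorbance at 450 nm.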

female BALB/C mice = test: In vivo imaging in mice of Fluc-mRNA LNP formulations (mRNA expression and duration)
Outline: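 Female BALB/C mice (4-6 weeks, 17-19 g) received LNP carrying […] Fluc-mRNA intramuscularly. At 6h, 24 h, 48h and 7d, fluorescent imaging substrate was given intraperitoneally and after 5 minutes average radiance, as a measure of expressed protein, was imaged on an IVIS Spectrum system.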

293T cells [3] = test: Fluorescent detection of Fluc-mRNA (cell transfection efficiency of LNP formulations); format: cell-based
293T cells [4] = test: as above; format: cell-based; remark: listed apart in the source

CCCCCCCCC(CCCCCCCC)C(=O)OCCCCCCN(CCO)CCN(CCO)CCCCCCOC(=O)C(CCCCCCCC)CCCCCCCC [YK-402]
PDI ([1]; LNP formulation of the cationic lipid, 25° C.): 17.1% | Particle size ([1]; LNP formulation of the cationic lipid/DSPC/cholesterol/DMG-PEG2000 49:10:39.5:1.5, 25° C.): 155 nm | Cell survival rate (293T cells [2]; LNP with 1.5 μg Fluc-mRNA, 24 hours, CCK-8): 72.70% | cell survival rate higher than ALC-0315 (293T cells [2]; difference vs ALC-0315): 25.49% | cell survival rate higher than HIMA (293T cells [2]; difference vs HIMA (HHMA)): 8.43% | cell survival rate higher than Lipofectamine 3000 (293T cells [2]; difference vs Lipofectamine 3000): 51.04% | cell survival rate higher than SM-102 (293T cells [2]; difference vs SM-102): 4.80% | cell survival rate higher than YK-404 (293T cells [2]; difference vs YK-404): 30.58% | cell survival rate higher than YK-405 (293T cells [2]; difference vs YK-405): 30.84% | cell survival rate higher than YK-406 (293T cells [2]; difference vs YK-406): 47.74% | cell survival rate higher than YK-408 (293T cells [2]; difference vs YK-408): 30.39% | cell survival rate higher than YK-409 (293T cells [2]; difference vs YK-409): 26.59% | cell survival rate higher than YK-410 (293T cells [2]; difference vs YK-410): 27.78% | cell survival rate higher than YK-411 (293T cells [2]; difference vs YK-411): 56.37% | cell survival rate higher than YK-412 (293T cells [2]; difference vs YK-412): 18.56% | cell survival rate higher than YK-413 (293T cells [2]; difference vs YK-413): 25.50% | cell survival rate higher than YK-414 (293T cells [2]; difference vs YK-414): 43.95% | cell survival rate higher than YK-415 (293T cells [2]; difference vs YK-415): 11.54% | cell survival rate higher than YK-416 (293T cells [2]; difference vs YK-416): 31.73% | cell survival rate higher than YK-417 (293T cells [2]; difference vs YK-417): 51.36% | cell survival rate higher than YK-418 (293T cells [2]; difference vs YK-418): 51.65% | cell survival rate higher than YK-419 (293T cells [2]; difference vs YK-419): 33.78% | cell survival rate higher than YK-420 (293T cells [2]; difference vs YK-420): 37.11% | cell survival rate higher than YK-421 (293T cells [2]; difference vs YK-421): 36.99% | cell survival rate higher than YK-424 (293T cells [2]; difference vs YK-424): 44.77% | cell survival rate higher than compound 21 (293T cells [2]; difference vs compound 21): 4.86% | cell survival rate higher than compound 23 (293T cells [2]; difference vs compound 23): 3.59% | cytotoxicity reduced compared with YK-411 (293T cells [2]; rounded summary statement vs YK-411): 50% | average radiation intensity, times that of ALC-0315 (female BALB/C mice; 6 h): 1.75 | average radiation intensity, times that of HHMA (female BALB/C mice; 6 h): 2.22 | average radiation intensity, times that of SM-102 (female BALB/C mice; 6 h): 2.13 | average radiation intensity, times that of compound 21 (female BALB/C mice; 6 h): 2.45 | average radiation intensity, times that of compound 23 (female BALB/C mice; 6 h): 2.53 | expression amount in mice, times that of YK-415 (female BALB/C mice; 6 h): 12.48 | expression amount in mice, times that of YK-417 (female BALB/C mice; 6 h): 24.31 | mRNA expression in mice, times that of YK-411 (female BALB/C mice; 6 h): 251.30 | average radiation intensity, times that of ALC-0315 (female BALB/C mice; 24 h): 4.21 | average radiation intensity, times that of HHMA (female BALB/C mice; 24 h): 6.65 | average radiation intensity, times that of SM-102 (female BALB/C mice; 24 h): 6.47 | average radiation intensity, times that of compound 21 (female BALB/C mice; 24 h): 7.19 | average radiation intensity, times that of compound 23 (female BALB/C mice; 24 h): 7.91 | expression amount in mice, times that of YK-415 (female BALB/C mice; 24 h): 12.38 | expression amount in mice, times that of YK-417 (female BALB/C mice; 24 h): 39.95 | mRNA expression in mice, times that of YK-411 (female BALB/C mice; 24 h): 394.86 | average radiation intensity, times that of ALC-0315 (female BALB/C mice; 48 h): 8.62 | average radiation intensity, times that of HHMA (female BALB/C mice; 48 h): 10.37 | average radiation intensity, times that of SM-102 (female BALB/C mice; 48 h): 10.52 | average radiation intensity, times that of compound 21 (female BALB/C mice; 48 h): 10.96 | average radiation intensity, times that of compound 23 (female BALB/C mice; 48 h): 10.50 | expression amount in mice, times that of YK-415 (female BALB/C mice; 48 h): 21.90 | expression amount in mice, times that of YK-417 (female BALB/C mice; 48 h): 49.08 | mRNA expression in mice, times that of YK-411 (female BALB/C mice; 48 h): 354.61 | average radiation intensity, times that of ALC-0315 (female BALB/C mice; 7 d): 1.42 | average radiation intensity, times that of HHMA (female BALB/C mice; 7 d): 1.67 | average radiation intensity, times that of SM-102 (female BALB/C mice; 7 d): 1.48 | average radiation intensity, times that of compound 21 (female BALB/C mice; 7 d): 1.56 | average radiation intensity, times that of compound 23 (female BALB/C mice; 7 d): 1.63 | expression amount in mice, times that of YK-415 (female BALB/C mice; 7 d): 2.46 | expression amount in mice, times that of YK-417 (female BALB/C mice; 7 d): 4.35 | mRNA expression in mice, times that of YK-411 (female BALB/C mice; 7 d): 20.71 | average radiation intensity, 6 h (female BALB/C mice; Fluc-mRNA LNP intramuscular, 6 h after administration): 1470100 | average radiation intensity, 24 h (female BALB/C mice; Fluc-mRNA LNP intramuscular, 24 h after administration): 798408 | average radiation intensity, 48 h (female BALB/C mice; Fluc-mRNA LNP intramuscular, 48 h after administration): 345740 | average radiation intensity, 7 d (female BALB/C mice; Fluc-mRNA LNP intramuscular, 7 d after administration): 9940 | Relative light unit (RLU) (293T cells [3]; LNP with 0.3 μg Fluc-mRNA, 96-well plate, 24 hours): 5044102 RLU | cell transfection efficiency, times that of YK-415 (293T cells [3]; ratio vs YK-415): 16.93 | cell transfection efficiency, times that of YK-417 (293T cells [3]; ratio vs YK-417): 43.01 | cell transfection efficiency, times that of YK-418 (293T cells [3]; ratio vs YK-418): 45.34 | cell transfection efficiency, times that of YK-424 (293T cells [3]; ratio vs YK-424): 1.75 | RLU value, times that of compound 21 (293T cells [3]; ratio vs compound 21): 3.34 | RLU value, times that of compound 23 (293T cells [3]; ratio vs compound 23): 3.60 | RLU value, times that of ALC-0315 (293T cells [4]; ratio vs ALC-0315): 2.30 | RLU value, times that of HHMA (293T cells [4]; ratio vs HHMA): 2.43 | RLU value, times that of Lipofectamine 3000 (293T cells [4]; ratio vs Lipofectamine 3000): 4.20 | RLU value, times that of YK-009 (293T cells [4]; ratio vs YK-009): 0.98 | RLU value, times that of YK-405 (293T cells [4]; ratio vs YK-405): 1.58 | RLU value, times that of YK-406 (293T cells [4]; ratio vs YK-406): 64.46 | RLU value, times that of YK-408 (293T cells [4]; ratio vs YK-408): 3.42 | RLU value, times that of YK-409 (293T cells [4]; ratio vs YK-409): 7.53 | RLU value, times that of YK-410 (293T cells [4]; ratio vs YK-410): 12.37 | cell transfection efficiency, times that of YK-412 (293T cells [4]; ratio vs YK-412): 1.50 | cell transfection efficiency, times that of YK-413 (293T cells [4]; ratio vs YK-413): 3.66 | cell transfection efficiency, times that of YK-414 (293T cells [4]; ratio vs YK-414): 11.36 | cell transfection efficiency, times that of YK-416 (293T cells [4]; ratio vs YK-416): 1.27 | cell transfection efficiency, times that of YK-419 (293T cells [4]; ratio vs YK-419): 1.59 | cell transfection efficiency, times that of YK-420 (293T cells [4]; ratio vs YK-420): 1.25 | cell transfection efficiency, times that of YK-421 (293T cells [4]; ratio vs YK-421): 10.81
